Data reported in BindingDB's records for patent US20240066136 (Cullgen (Shanghai), 2024).

target: DNA damage-binding protein 1 (Homo sapiens, UniProt Q16531); test: Surface Plasmon Resonance (SPR) Binding Assay
Experimental: Surface plasmon resonance (SPR) binding assay. All SPR studies were performed on a Biacore X100 plus or T200 instrument (GE Healthcare). Immobilization of purified His-DDB1 was carried out at 25° C. using a CM5 sensor chip. The surface was pre-equilibrated in HBS-EP running buffer (10 mM HEPES, pH7.4, 150 mM NaCl, 3 mM EDTA, 0.05% P20), then activated with EDC/NHS. His-DDB1 proteins were immobilized by amine coupling to a density of 11,000-13,000 resonance units (RUs) on flow cell FC2, whereas flow cell FC1 was used as reference. Both DDB1 immobilized and reference surfaces were deactivated with 1M ethanolamine.

DNA damage-binding protein 1, sequence (Q16531 whole entry): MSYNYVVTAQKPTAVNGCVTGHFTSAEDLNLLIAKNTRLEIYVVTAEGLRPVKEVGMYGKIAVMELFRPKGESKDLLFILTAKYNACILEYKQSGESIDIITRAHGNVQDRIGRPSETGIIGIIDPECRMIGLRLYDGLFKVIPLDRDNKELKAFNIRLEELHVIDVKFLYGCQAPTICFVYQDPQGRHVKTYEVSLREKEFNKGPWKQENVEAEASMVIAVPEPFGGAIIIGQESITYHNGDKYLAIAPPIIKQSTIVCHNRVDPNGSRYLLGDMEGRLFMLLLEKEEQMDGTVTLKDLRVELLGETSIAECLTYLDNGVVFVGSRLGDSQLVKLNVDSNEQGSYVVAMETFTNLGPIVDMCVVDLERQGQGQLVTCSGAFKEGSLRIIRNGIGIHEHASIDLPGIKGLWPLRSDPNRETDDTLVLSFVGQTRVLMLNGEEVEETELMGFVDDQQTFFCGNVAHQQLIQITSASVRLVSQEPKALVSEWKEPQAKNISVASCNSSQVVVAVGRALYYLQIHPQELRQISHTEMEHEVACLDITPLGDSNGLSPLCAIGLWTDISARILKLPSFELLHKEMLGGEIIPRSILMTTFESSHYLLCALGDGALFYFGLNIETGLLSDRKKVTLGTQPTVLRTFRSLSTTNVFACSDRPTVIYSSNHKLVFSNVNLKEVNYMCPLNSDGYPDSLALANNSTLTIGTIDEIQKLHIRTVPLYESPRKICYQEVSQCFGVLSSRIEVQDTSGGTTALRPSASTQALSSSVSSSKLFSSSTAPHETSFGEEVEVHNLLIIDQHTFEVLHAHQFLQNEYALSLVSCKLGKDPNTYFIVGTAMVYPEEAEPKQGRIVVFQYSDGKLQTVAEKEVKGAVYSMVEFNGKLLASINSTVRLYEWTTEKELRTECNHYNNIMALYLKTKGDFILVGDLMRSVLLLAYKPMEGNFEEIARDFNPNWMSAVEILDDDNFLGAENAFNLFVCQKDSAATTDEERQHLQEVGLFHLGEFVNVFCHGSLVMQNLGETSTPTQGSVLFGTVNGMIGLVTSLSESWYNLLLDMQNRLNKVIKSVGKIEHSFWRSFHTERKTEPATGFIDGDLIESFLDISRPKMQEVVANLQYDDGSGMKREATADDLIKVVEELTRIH

“H-KVLHKRTLG-OH [US20240066136,Peptide 5]” and CC(=O)Nc1cc(C(=O)NCCCCCCN)ccc1C(=O)Nc1nc(C)c([N+](=O)[O-])s1 [US20240066136,Compound BL-4] cannot be ordered by Kd: < 20 µM for the first, > 0.1 µM for the second.

“H-ILPKVWHKRELGLS-OH [US20240066136,Peptide 2]” and CC[C@H](C)[C@H](N)C(=O)N[C@@H](CC(C)C)C(=O)N1CCC[C@H]1C(=O)N[C@@H](CCCCN)C(=O)N[C@H](C(=O)N[C@@H](CC(C)C)C(=O)N[C@@H](Cc1cnc[nH]1)C(=O)N[C@@H](CCCCN)C(=O)N[C@@H](CCCNC(=N)N)C(=O)N[C@H](C(=O)N[C@@H](CC(C)C)C(=O)NCC(=O)N[C@@H](CC(C)C)C(=O)O)[C@@H](C)O)C(C)C [US20240066136,Peptide 3] cannot be ordered by Kd: < 20 µM for the first, < 20 µM for the second.

Compared with CCCC(=O)Nc1ccc(C(=O)Nc2ncc([N+](=O)[O-])s2)c(NC(C)=O)c1 [US20240066136,Compound B-146], CC[C@H](C)[C@H](N)C(=O)N[C@@H](CC(C)C)C(=O)N1CCC[C@H]1C(=O)N[C@@H](CCCCN)C(=O)N[C@H](C(=O)N[C@@H](CC(C)C)C(=O)N[C@@H](Cc1cnc[nH]1)C(=O)N[C@@H](CCCCN)C(=O)N[C@@H](CCCNC(=N)N)C(=O)N[C@H](C(=O)N[C@@H](CC(C)C)C(=O)NCC(=O)N[C@@H](CC(C)C)C(=O)N[C@@H](CO)C(=O)O)[C@@H](C)O)C(C)C [US20240066136,Peptide 1] is lower in Kd: 20 to 100 µM for the first, < 20 µM for the second.

“H-ILPKVLHKRTFGL-OH [US20240066136,Peptide 4]” and “H-NFTSRLNRRASFP-OH [US20240066136,Peptide 6]” cannot be ordered by Kd: < 20 µM for the first, < 20 µM for the second.

For Cc1nc(NC(=O)c2ccccc2NC(=O)CCOCCOCCCOCCN)sc1[N+](=O)[O-] [US20240066136,Compound BL-2], the Kd was “in the range around 60 µM”.
CCCC(=O)Nc1ccc(C(=O)Nc2ncc([N+](=O)[O-])s2)c(OC(=O)CCC)c1 [US20240066136,Compound B-24] was tested, and the Kd was “in the range around 60 µM”.
NCCOCCCOCCOCCC(=O)Nc1ccccc1C(=O)Nc1ncc([N+](=O)[O-])s1 [US20240066136,Compound BL-3] was tested, and the Kd was “in the range around 60 µM”.
